Measurements reported in ChEMBL document CHEMBL3137667, “[Drug-induced liver injury; fourteenth updated edition of the bibliographic database of liver injuries and related drugs]” (Gastroenterol Clin Biol, 2004).

How the values were obtained:
[1] = human
[2] = Presence of at least one case with successful reintroduction. [column 'REINT' in source]; conditions: human
[3] = human, serum
[4] = Highest frequency of moderate liver toxicity observed during clinical trials, expressed as a percentage. [column '% BIOL' in source]; conditions: human
[5] = human, serum, 4383 h
[6] = human; remark: listed apart in the source
[7] = human; remark: listed apart in the source
[8] = human; remark: listed apart in the source
[9] = human; remark: listed apart in the source
[10] = human; remark: listed apart in the source
[11] = human; remark: listed apart in the source
[12] = human; remark: listed apart in the source
[13] = human; remark: listed apart in the source
[14] = Highest frequency of acute liver toxicity observed during clinical trials, expressed as a percentage. [column '% AIGUE' in source]; conditions: human
[15] = human, serum; remark: listed apart in the source
[16] = Times to onset, minimal and maximal, observed in the indexed observations. [column 'DELAI' in source]; conditions: human
[17] = Comments (NB not yet translated). [column 'COMMENTAIRES' in source]; conditions: human
[18] = Proposed mechanism(s) of liver damage. [column 'MEC' in source]; conditions: human
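Throughout, for Hepatotoxicity (association with vascular disease): count of indexed literature references reporting vascular liver injury in humans, e.g. peliosis hepatitis, hepatic veno-occlusive disease or Budd-Chiari syndrome.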
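Throughout, for Hepatotoxicity (benign tumour): value is a count of indexed literature references citing a benign tumour confirmed by histopathology.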
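Throughout, for Hepatotoxicity (choleostasis): human cholestatic liver injury, shown by histopathology or by peak ALT or AST elevation over alkaline phosphatase ratio below 2, value counts indexed literature reports.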
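Throughout, for Hepatotoxicity (chronic liver disease): chronic liver injury confirmed by histopathology or persistently raised serum aminotransferase activity beyond 6 months, value given as the count of indexed literature references.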
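Throughout, for Hepatotoxicity (cirrhosis): value is a count of indexed literature references reporting cirrhosis confirmed by histopathology.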
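Throughout, for Hepatotoxicity (cytolytic): human cytolytic liver injury, shown by histopathology or by a ratio above 5 of peak ALT or AST elevation to alkaline phosphatase elevation, value counts indexed references.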
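Throughout, for Hepatotoxicity (granulomatous hepatitis): value is a count of indexed literature references reporting granulomatous liver disease confirmed by histopathology.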
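Throughout, for Hepatotoxicity (malignant tumour): malignant tumour confirmed by histopathology, value gives the count of indexed literature references reporting it.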
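Throughout, for Hepatotoxicity (severe hepatitis): human clinical data: severe hepatitis, meaning potentially life-threatening liver failure or clinically observed cases, the value counts how many indexed literature references report it.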
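Throughout, for Hepatotoxicity (steatosis): steatosis confirmed by histopathology, value is the count of indexed references.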

Structure (SMILES)	Hepatotoxicity (benign tumour) [1]	Hepatotoxicity (successful reintroduction) [2]	Hepatotoxicity (acute) [3]	Hepatotoxicity (moderate) [4] [%]	Hepatotoxicity (chronic liver disease) [5]	Hepatotoxicity (granulomatous hepatitis) [6]	Hepatotoxicity (choleostasis) [7]	Hepatotoxicity (malignant tumour) [8]	Hepatotoxicity (steatosis) [9]	Hepatotoxicity (association with vascular disease) [10]	Hepatotoxicity (cirrhosis) [11]	Hepatotoxicity (cytolytic) [12]	Hepatotoxicity (severe hepatitis) [13]	Hepatotoxicity (acute) [14] [%]	Hepatotoxicity (moderate) [15]	Hepatotoxicity (time to onset) [16]	Hepatotoxicity (comment) [17]	Hepatotoxicity (mechanism) [18]	also measured
CC(C(=O)Nc1cc(-c2ccccc2)nn1-c1ccccc1)N(C)C (stereo not drawn) [DIFENAMIZOLE]	0	yes	1	0	0	0	0	0	0	0	0	1	1	0	0				
CN1CCN(C(c2ccccc2)c2ccccc2)CC1 [CYCLIZINE]	0	yes	1	0	0	0	0	0	0	0	0	0	0	0	0				
CCc1c2c(nc3ccc(OC(=O)N4CCC(N5CCCCC5)CC4)cc13)-c1cc3c(c(=O)n1C2)COC(=O)[C@]3(O)CC [IRINOTECAN]	0	yes	3		0	0	2	0	0	0	0	1			12				Hepatotoxicity (moderate) ([4]; Liver): 13.3%; Hepatotoxicity (severe hepatitis) ([13]; Liver): 0; Hepatotoxicity (acute) ([14]; Liver): 4.2%
O=[N+]([O-])O[C@H]1CO[C@H]2[C@@H]1OC[C@H]2O[N+](=O)[O-] [ISOSORBIDE DINITRATE]	0	yes	1	0	0	0	0	0	0	0	0	0	0	0	1				
O=C1CN2Cc3c(ccc(Cl)c3Cl)N=C2N1 [ANAGRELIDE]	0	yes	1	0.2	0	0	1	0	0	0	0	0	0	0	1				
CN(CCOc1ccc(CC2SC(=O)NC2=O)cc1)c1ccccn1 (stereo not drawn) [ROSIGLITAZONE]	0		10	0.2	1	3	2	0	0	0	0	7	5	0	8	1 week - 4 years	CHOLANGITE	Allergic	
COc1cc(C(=S)N2CCOCC2)cc(OC)c1OC [TRITIOZINE]	0	yes	2	3	0	0	0	0	0	0	0	0	0	0	1				
CC(=O)OCC1=C(C(=O)O)N2C(=O)[C@@H](NC(=O)Cc3cccs3)[C@H]2SC1 [CEPHALOTHIN]	0		4	1.5	0	0	1	0	0	0	0	1	0	0	4	1 day - 1 month	RC/NAFCILLINE/OXACILLINE/CEFAPIRINE	Allergic	
CC1(C)S[C@@H]2[C@H](NC(=O)[C@H](N)c3ccc(O)cc3)C(=O)N2[C@H]1C(=O)O [AMOXICILLIN]	0		10		1	1	7	0	0	0	0	2			7	3 days - 8 weeks	CHOLESTASE_PROLONGEE CHOLANGITE DUCTOPENIE RC/ERYTHROMYCINE	Allergic	Hepatotoxicity (moderate) ([4]; Liver): 8%; Hepatotoxicity (severe hepatitis) ([13]; Liver): 1; Hepatotoxicity (acute) ([14]; Liver): 0%
CO[C@@]1(NC(=O)Cc2cccs2)C(=O)N2C(C(=O)O)=C(COC(N)=O)CS[C@@H]21 [CEFOXITIN]	0		1	25.8	0	0	1	0	0	0	0	0	0	0	18	17 days	CHOLESTASE_PROLONGEE	Allergic	
